# How the values were obtained:
# DERL-7 (IL-2 2.5 ng/mL) [1] = experiment: relative IC50 (inflection point of fitted viability curve, relative to fitted max inhibition); higher = less sensitive; conditions: 72 h
# Procedure: (§1)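 Drug sensitivity and resistance testing: 5 concentrations over a 10,000-fold range, 72 h at 37 °C, viability by CellTiter-Glo normalised to DMSO and benzethonium chloride controls. IC50 is the inflection point of a logistic fit (min fixed at 0, max fitted), so it is relative to the fitted maximal inhibition. Kept only where fitted max inhibition is at least 50%.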
# NKL (IL-2 2.5 ng/mL) [2] = experiment: as above; conditions: 72 h
# Procedure: as §1
# NK-92 (IL-2 2.5 ng/mL) [3] = experiment: as above; conditions: 72 h
# Procedure: as §1
# [4] = test system: normal NK cells expanded with K562-aAPC; experiment: percent inhibition of viability; higher = more inhibition; conditions: 72 h, IL-2 2.5 ng/mL
# Procedure: (§2)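 Drug sensitivity and resistance testing on K562-aAPC-expanded normal NK cells: 5 concentrations (10-fold steps over a 10,000-fold range), 72 h at 37 °C, viability by CellTiter-Glo normalised to DMSO and benzethonium chloride controls; DSS from the fitted curve.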
# [5] = test system: normal NK cells expanded with K562-aAPC; experiment: drug sensitivity score (DSS) (DSS units); higher = more sensitive; extreme values may be limits of the assay; conditions: 72 h; IL-2 2.5 ng/mL
# Procedure: as §2
# [6] = test system: normal primary NK cells, pool 1 (3 donors) (IL-2 2.5 ng/mL); experiment: percent inhibition of viability; higher = more inhibition; conditions: 72 h
# YT (IL-2 2.5 ng/mL) [7] = experiment: as above; conditions: 72 h
# KAI3 (IL-2 2.5 ng/mL) [8] = experiment: as above; conditions: 72 h
# IMC-1 (IL-2 20 ng/mL) [9] = experiment: as above; conditions: 72 h
# [10] = test system: normal primary NK cells, pool 3 (3 donors) (IL-2 2.5 ng/mL); experiment: as above; conditions: 72 h
# KHYG-1 (IL-2 2.5 ng/mL) [11] = experiment: as above; conditions: 72 h
# NKL (IL-2 2.5 ng/mL) [12] = experiment: as above; conditions: 72 h
# [13] = test system: normal primary NK cells, pool 2 (3 donors) (IL-2 2.5 ng/mL); experiment: as above; conditions: 72 h
# NK-YS (IL-2 2.5 ng/mL) [14] = experiment: as above; conditions: 72 h
# SNK-6 (IL-2 2.5 ng/mL) [15] = experiment: as above; conditions: 72 h
# [16] = test system: normal primary NK cells, pool 1 (3 donors), resting (IL-2 0 ng/mL); experiment: as above; conditions: 72 h
# NK-92 (IL-2 2.5 ng/mL) [17] = experiment: as above; conditions: 72 h
# DERL-7 (IL-2 2.5 ng/mL) [18] = experiment: as above; conditions: 72 h
# [19] = test system: normal primary NK cells, pool 1 (3 donors) (IL-2 2.5 ng/mL); experiment: drug sensitivity score (DSS) (DSS units); higher = more sensitive; extreme values may be limits of the assay; conditions: 72 h
# YT (IL-2 2.5 ng/mL) [20] = experiment: as above; conditions: 72 h
# KAI3 (IL-2 2.5 ng/mL) [21] = experiment: as above; conditions: 72 h
# IMC-1 (IL-2 20 ng/mL) [22] = experiment: as above; conditions: 72 h
# [23] = test system: normal primary NK cells, pool 3 (3 donors) (IL-2 2.5 ng/mL); experiment: as above; conditions: 72 h
# KHYG-1 (IL-2 2.5 ng/mL) [24] = experiment: as above; conditions: 72 h
# NKL (IL-2 2.5 ng/mL) [25] = experiment: as above; conditions: 72 h
# [26] = test system: normal primary NK cells, pool 2 (3 donors) (IL-2 2.5 ng/mL); experiment: as above; conditions: 72 h
# NK-YS (IL-2 2.5 ng/mL) [27] = experiment: as above; conditions: 72 h
# SNK-6 (IL-2 2.5 ng/mL) [28] = experiment: as above; conditions: 72 h
# [29] = test system: normal primary NK cells, pool 1 (3 donors), resting (IL-2 0 ng/mL); experiment: as above; conditions: 72 h
# NK-92 (IL-2 2.5 ng/mL) [30] = experiment: as above; conditions: 72 h
# DERL-7 (IL-2 2.5 ng/mL) [31] = experiment: as above; conditions: 72 h
compound,measurement,setting,value
NC1(c2ccc(-c3nc4ccn5c(=O)[nH]nc5c4cc3-c3ccccc3)cc2)CCC1 [MK-2206],relative IC50,DERL-7 (IL-2 2.5 ng/mL) [1],103 nM
CC(C)NC[C@@H](C(=O)N1CCN(c2ncnc3c2[C@H](C)C[C@H]3O)CC1)c1ccc(Cl)cc1 [GDC-0068],relative IC50,DERL-7 (IL-2 2.5 ng/mL) [1],1030 nM
C=C(c1ccc(C(=O)O)cc1)c1cc2c(cc1C)C(C)(C)CCC2(C)C [Bexarotene],relative IC50,NKL (IL-2 2.5 ng/mL) [2],208 nM
O=c1sn(-c2cccc3ccccc23)c(=O)n1Cc1ccccc1 [Tideglusib],relative IC50,NK-92 (IL-2 2.5 ng/mL) [3],> 3000 nM
COc1ccc2c(OCc3nnc4ccc(-c5ccccc5)nn34)ccnc2c1 [AMG-208],relative IC50,DERL-7 (IL-2 2.5 ng/mL) [1],> 2500 nM
C[C@H](Nc1ncnc2nc[nH]c12)c1cc2cccc(Cl)c2c(=O)n1-c1ccccc1 [Duvelisib],relative IC50,DERL-7 (IL-2 2.5 ng/mL) [1],44.5 nM
Nc1nc(OCc2cc(Br)cs2)c2[nH]cnc2n1 [Lomeguatrib],relative IC50,NKL (IL-2 2.5 ng/mL) [2],1900 nM
CN[C@@H](C)C(=O)N[C@H]1CN(C(=O)CC(C)C)CC[C@H]2CC[C@@H](C(=O)NC(c3ccccc3)c3ccccc3)N2C1=O [AT-406] (max concentration tested 10000 nM),percent inhibition of viability,[4]; 1 nM,-3.38%
same,percent inhibition of viability,[4]; 10 nM,-2.67%
same,percent inhibition of viability,[4]; 100 nM,4.16%
same,percent inhibition of viability,[4]; 1000 nM,25.7%
same,percent inhibition of viability,[4]; 10000 nM,52.9%
same,drug sensitivity score,[5],5.72
same,percent inhibition of viability,[6]; 1 nM,-7.15%
same,percent inhibition of viability,[6]; 10 nM,1.28%
same,percent inhibition of viability,[6]; 100 nM,15.2%
same,percent inhibition of viability,[6]; 1000 nM,27.8%
same,percent inhibition of viability,[6]; 10000 nM,74%
same,percent inhibition of viability,YT (IL-2 2.5 ng/mL) [7]; 1 nM,0.43%
same,percent inhibition of viability,YT (IL-2 2.5 ng/mL) [7]; 10 nM,-2.82%
same,percent inhibition of viability,YT (IL-2 2.5 ng/mL) [7]; 100 nM,-3.18%
same,percent inhibition of viability,YT (IL-2 2.5 ng/mL) [7]; 1000 nM,14.6%
same,percent inhibition of viability,YT (IL-2 2.5 ng/mL) [7]; 10000 nM,35.9%
same,percent inhibition of viability,KAI3 (IL-2 2.5 ng/mL) [8]; 1 nM,0.46%
same,percent inhibition of viability,KAI3 (IL-2 2.5 ng/mL) [8]; 10 nM,-9.34%
same,percent inhibition of viability,KAI3 (IL-2 2.5 ng/mL) [8]; 100 nM,-3.88%
same,percent inhibition of viability,KAI3 (IL-2 2.5 ng/mL) [8]; 1000 nM,10.2%
same,percent inhibition of viability,KAI3 (IL-2 2.5 ng/mL) [8]; 10000 nM,62.7%
same,percent inhibition of viability,IMC-1 (IL-2 20 ng/mL) [9]; 1 nM,-6.88%
same,percent inhibition of viability,IMC-1 (IL-2 20 ng/mL) [9]; 10 nM,-6.17%
same,percent inhibition of viability,IMC-1 (IL-2 20 ng/mL) [9]; 100 nM,4.87%
same,percent inhibition of viability,IMC-1 (IL-2 20 ng/mL) [9]; 1000 nM,17.4%
same,percent inhibition of viability,IMC-1 (IL-2 20 ng/mL) [9]; 10000 nM,12.2%
same,percent inhibition of viability,[10]; 1 nM,-11.2%
same,percent inhibition of viability,[10]; 10 nM,-10.2%
same,percent inhibition of viability,[10]; 100 nM,2.26%
same,percent inhibition of viability,[10]; 1000 nM,13%
same,percent inhibition of viability,[10]; 10000 nM,61.8%
same,percent inhibition of viability,KHYG-1 (IL-2 2.5 ng/mL) [11]; 1 nM,-3.13%
same,percent inhibition of viability,KHYG-1 (IL-2 2.5 ng/mL) [11]; 10 nM,-12.2%
same,percent inhibition of viability,KHYG-1 (IL-2 2.5 ng/mL) [11]; 100 nM,-7.84%
same,percent inhibition of viability,KHYG-1 (IL-2 2.5 ng/mL) [11]; 1000 nM,25.9%
same,percent inhibition of viability,KHYG-1 (IL-2 2.5 ng/mL) [11]; 10000 nM,91.8%
same,percent inhibition of viability,NKL (IL-2 2.5 ng/mL) [12]; 1 nM,2.76%
same,percent inhibition of viability,NKL (IL-2 2.5 ng/mL) [12]; 10 nM,0.59%
same,percent inhibition of viability,NKL (IL-2 2.5 ng/mL) [12]; 100 nM,0.42%
same,percent inhibition of viability,NKL (IL-2 2.5 ng/mL) [12]; 1000 nM,22.9%
same,percent inhibition of viability,NKL (IL-2 2.5 ng/mL) [12]; 10000 nM,30.9%
same,percent inhibition of viability,[13]; 1 nM,-16.6%
same,percent inhibition of viability,[13]; 10 nM,-8.69%
same,percent inhibition of viability,[13]; 100 nM,4.59%
same,percent inhibition of viability,[13]; 1000 nM,20.9%
same,percent inhibition of viability,[13]; 10000 nM,64.6%
same,percent inhibition of viability,NK-YS (IL-2 2.5 ng/mL) [14]; 1 nM,-5.59%
same,percent inhibition of viability,NK-YS (IL-2 2.5 ng/mL) [14]; 10 nM,-11.9%
same,percent inhibition of viability,NK-YS (IL-2 2.5 ng/mL) [14]; 100 nM,-8.91%
same,percent inhibition of viability,NK-YS (IL-2 2.5 ng/mL) [14]; 1000 nM,-3.43%
same,percent inhibition of viability,NK-YS (IL-2 2.5 ng/mL) [14]; 10000 nM,6.14%
same,percent inhibition of viability,SNK-6 (IL-2 2.5 ng/mL) [15]; 1 nM,-9.2%
same,percent inhibition of viability,SNK-6 (IL-2 2.5 ng/mL) [15]; 10 nM,-11.9%
same,percent inhibition of viability,SNK-6 (IL-2 2.5 ng/mL) [15]; 100 nM,-1.09%
same,percent inhibition of viability,SNK-6 (IL-2 2.5 ng/mL) [15]; 1000 nM,4.11%
same,percent inhibition of viability,SNK-6 (IL-2 2.5 ng/mL) [15]; 10000 nM,11.8%
same,percent inhibition of viability,[16]; 1 nM,-17.3%
same,percent inhibition of viability,[16]; 10 nM,-12.3%
same,percent inhibition of viability,[16]; 100 nM,13.9%
same,percent inhibition of viability,[16]; 1000 nM,28.4%
same,percent inhibition of viability,[16]; 10000 nM,73.2%
same,percent inhibition of viability,NK-92 (IL-2 2.5 ng/mL) [17]; 1 nM,-23.7%
same,percent inhibition of viability,NK-92 (IL-2 2.5 ng/mL) [17]; 10 nM,-16.2%
same,percent inhibition of viability,NK-92 (IL-2 2.5 ng/mL) [17]; 100 nM,3.03%
same,percent inhibition of viability,NK-92 (IL-2 2.5 ng/mL) [17]; 1000 nM,13.5%
same,percent inhibition of viability,NK-92 (IL-2 2.5 ng/mL) [17]; 10000 nM,49.2%
same,percent inhibition of viability,DERL-7 (IL-2 2.5 ng/mL) [18]; 1 nM,-6.8%
same,percent inhibition of viability,DERL-7 (IL-2 2.5 ng/mL) [18]; 10 nM,8.09%
same,percent inhibition of viability,DERL-7 (IL-2 2.5 ng/mL) [18]; 100 nM,10.6%
same,percent inhibition of viability,DERL-7 (IL-2 2.5 ng/mL) [18]; 1000 nM,21.5%
same,percent inhibition of viability,DERL-7 (IL-2 2.5 ng/mL) [18]; 10000 nM,39.4%
same,drug sensitivity score,[19],7.33
same,drug sensitivity score,YT (IL-2 2.5 ng/mL) [20],3.66
same,drug sensitivity score,KAI3 (IL-2 2.5 ng/mL) [21],5.12
same,drug sensitivity score,IMC-1 (IL-2 20 ng/mL) [22],2.57
same,drug sensitivity score,[23],5.48
same,drug sensitivity score,KHYG-1 (IL-2 2.5 ng/mL) [24],8.94
same,drug sensitivity score,NKL (IL-2 2.5 ng/mL) [25],3.99
same,drug sensitivity score,[26],6.28
same,drug sensitivity score,NK-YS (IL-2 2.5 ng/mL) [27],0
same,drug sensitivity score,SNK-6 (IL-2 2.5 ng/mL) [28],0.19
same,drug sensitivity score,[29],7.24
same,drug sensitivity score,NK-92 (IL-2 2.5 ng/mL) [30],4.65
same,drug sensitivity score,DERL-7 (IL-2 2.5 ng/mL) [31],4.83
